The results in this text go back to patent US20230295255A1, “ANNEXIN A1-DERIVED POLYPEPTIDE ANALOGUES” (Reso Ther Pharma A/S, priority 2020, published 2023).

Ends that are not written are not given here.

Data set [1] in a line: Determination of terminal half times after intravenous injection in rats (plasma, LC/MS-MS). More on the design: species or system Male Wistar rats. The note with it: in vivo, rat, read-out: terminal half time (t½). The protocol:
Male Wistar rats (Crl:WI(Han), Charles River, Germany, weight 300 g±20 g were kept in transparent polycarbonate cages (floor area: 1500 cm^2—height: at least 21 cm) with two in each cage, males and females separated at a temperature of 21° C.±3° C. and relative humidity of 55%±15% with a 12 hours light and 12 hours darkness (Light on from 06:00 to 18:00 h). Following a minimum of five days acclimatization the animals received an intravenous injection of test item through the tail vein given over 60 seconds using a butterfly syringe with volume adjusted according to the most recent body weight data. The butterfly was flushed with 0.4 mL 0.9% NaCl immediately after injection. […]. The dose volume was 5 mL/kg body weight.
The following doses of test item was given: 0.1, 1 and 10 mg/kg in 5% glucose; 1.0 mM acetic acid. Six animals were treated on each dose level.
(§1) On the day of dosing blood samples of approximately 0.4 mL was drawn using the sublingual method. The blood was sampled into a collecting tube containing K2EDTA as anticoagulant. After collection, the collecting tube was immediately labelled and placed in ice water (sufficient to cover the blood entirely) until centrifugation. Within 20 minutes after blood sampling, blood was centrifuged for 8 minutes at 2150 G, at +4° C.). The entire plasma sample was transferred to Eppendorf microcentrifuge tubes (Polypropylene tubes with Eppendorf Safe-Lock lid, Sigma, Denmark). Within 30 minutes after centrifugation, plasma was snap frozen on dry ice and stored at −70° C. or below.
Time point for blood sampling: 2, 5, 10 and 20 min from completion of dosing.
Plasma concentration of the test item was measured by use of LC/MS-MS.

The nature of data set [2]: Determination of terminal half times after intravenous injection in beagle dogs (plasma, LC/MS-MS). The note with it: dog; for half-life: in vivo, intravenous, read-out: terminal half time (t½). It is filed as in vivo. On the procedure: 6 beagle dogs, 3 males and 3 females, HsdRcc:DOBE from Marshall BioResources, F-03800 Gannat, France. Age 5-6 months, weight 6-8 kg were kept 21° C.±3° C. with relative humidity of 55%±15% with 12 hours light and 12 hours darkness (Light on from 06:00 to 18:00 h). Male and females kept separate.
Following a pre-treatment period of a minimum of two weeks the animals received an intravenous injection of test item through the cephalic vein given over 5 min using a butterfly syringe with volume adjusted according to the most recent body weight data. The butterfly was flushed with 5 ml 0.9% NaCl immediately after injection. The dose volume was 5 mL/kg body weight. One male and one female were treated at each dose level.
The following doses of test item was given: 2, 6 and 10 mg/kg in 5% glucose; 1.0 mM acetic acid. One male and one female were treated on each dose level. For the control peptide the doses given were: 1, 3 and 10 mg/kg.
as §1, with “Blood samples for determination” for “On the day”, “plasma levels of test item” for “dosing blood samples”, “mL per sample” for “mL”, “from” for “using”, “contralateral cephalic vein.” for “sublingual method.”
Plasma concentration of test item and control peptide was measured by use of LC/MS-MS.

A short description of data set [3]: Body weight and liver weight in experimental model of Nonalcoholic Steatohepatitis (HFD mice). The note with it: end of 6 weeks treatment, i.p. once daily 5 days a week, AnxA1 1 mg/kg/day, Test Item A 250 μg/kg/day. It is filed as in vivo, C57BL/6 mice. On the procedure:
(§2) Male C57BL/6 mice were housed (7-9/cage) in pathogen free conditions and maintained at constant room temperature (20-22° C.) with free access to water and food under a 12 h light/dark cycle (lights on at 07:00 h). […] This diet leads within 16 weeks to steatohepatitis associated with obesity and insulin resistance, which mimics what is seems in humans suffering from NASH. The control group received ad libitum normal chow for 16 weeks. The body weight for each mouse was recorded weekly by using a dedicated digital balance (each Friday afternoon—starting from 5 pm).
(§3) Mice were divided in experimental groups as below: • A: Non HFD: Time control group: Had access to standard chow diet throughout the study period • B: Vehicle: Vehicle treatment group: Received HFD+Vehicle treatment (sterile saline injections) once daily • C: AnxA1: AnnexinA1 treatment group: Received HFD+Annexin A1 full-length protein at a dose of 1 mg/kg/day. • D: Test Item A: Test compound A group: Received HDF+250 μg/kg/day of Test compound A=[…] (SEQ ID NO:4); (AnxA1 (2-46 Val24Leu).
Treatment was commended following 10 weeks HFD and was given as a once daily intraperitoneal given 5 days a week (Monday-Friday) for 6 weeks. The animals were kept on HFD during the 6 weeks treatment period. […]

Data set [4] in a line: Liver injury assessment: blood levels of alanine aminotransferase (ALT) in HFD NASH model. It is filed as in vivo, C57BL/6 mice. The following applies: HFD mice, after 6 weeks treatment, i.p.; AnxA1 1 mg/kg/day, Test Item A 250 μg/kg/day. On the procedure:
as §2
Liver injury was assessed before and after treatment with test compound, control compound or vehicle by evaluating blood levels of alanine aminotransferase (ALT) with a spectrophotometric kit. Blood sampling was carried out by retro-orbital bleeding.
Mice were divided in experimental groups as below: • A: Non HFD: Time control group: Had access to standard chow diet throughout the study period • B: Vehicle: Vehicle treatment group: Received HFD+Vehicle treatment (sterile saline injections) once daily • C: AnxA1: AnnexinA1 treatment group: Received HFD+Annexin A1 full-length protein at a dose of 1 mg/kg/day. • D: Test Item A: Test compound A group: Received HDF+250 μg/kg/day of Test compound A=[…] (SEQ ID NO:4); (AnxA1 (2-46 Val24Leu). […]

Data set [5] has as its system TNF-α. Nature of the data set: Low grade inflammation: liver expression level of TNF-α by real time PCR in HFD NASH model. It is filed as in vivo, C57BL/6 mice. The note with it: HFD mice, AnxA1 1 mg/kg/day, Test Item A 250 μg/kg/day. The protocol:
as §2
Low inflammation in the livers was determined by the expression level of TNF-α measured by real time PCR using a commercial available tracer.
as §3
Treatment was commended following 10 weeks HFD and was given as a once daily intraperitoneal given 5 days a week (Monday-Friday) for 6 weeks. […]
Background: Real-time PCR tracks product formation cycle by cycle.

Consider “AMVSEFLKQAWFIENEEQEYVQTLKSSKGGPGSAVSPYPTFNPSS [Test Item A]”, for which the half-life in data set [1] (0.1 mg/kg) turned out to be 3.18 min; in data set [1] (1 mg/kg), 2.87 min; in data set [1] (10 mg/kg), 5.85 min; in data set [2] (2 mg/kg) it was 9.16 min; in data set [2] (6 mg/kg), 19.8 min; in data set [2] (10 mg/kg), 28.3 min. Also, the “terminal half time (t½) of test item, times longer than the control peptide” value in data set [2] (single intravenous dosing) is reported as “up to 4.8 times”.

As for “AMVSEFLKQAWFIENEEQEYVQTLKSSKGGPGSAVSPYPTFNPSSDV [control peptide, reference compound]”, the half-life in data set [2] (1 mg/kg) stood at 5.57 min; in data set [2] (3 mg/kg) it was 5.69 min; in data set [2] (10 mg/kg), 5.86 min.

B1: AnxA1: full length Annexin A1 protein (Homo sapiens, SEQ ID NO:1) (protein, listed as Homo Sapiens)
chain: MAMVSEFLKQAWFIENEEQEYVQTVKSSKGGPGSAVSPYPTFNPSSDVAALHKAIMVKGVDEATIIDILTKRNNAQRQQIKAAYLQETGKPLDETLKKALTGHLEEVVLALLKTPAQFDADELRAAMKGLGTDEDTLIEILASRTNKEIRDINRVYREELKRDLAKDITSDTSGDFRNALLSLAKGDRSEDFGVNEDLADSDARALYEAGERRKGTDVNVFNTILTTRSYPQLRRVFQKYTKYSKHDMNKVLDLELKGDIEKCLTAIVKCATSKPAFFAEKLHQAMKGVGTRHKALIRIMVSRSEIDMNDIKAFYQKMYGISLCQAILDETKGDYEKILVALCGGN
B1: in data set [3], the “Bodyweight, mean value per group” value is reported as 32.5 g and the “Liver Weight, mean value per group” value is 2.0 g. Also, the “ALT (blood alanine aminotransferase)” value in data set [4] was found to be 100 u/L. In addition, the “Relative expression levels of TNF-α with the mean expression in group B (vehicle) set to 1” value in data set [5] amounted to 1.17±023.
